Results as given in patent US10766885B1, “Silibinin 3,3′-thiodipropionic acid ester with hepatoprotective activity and a method of preparing the same” (SHAANXI UNIVERSITY OF SCIENCE AND TECHNOLOGY, priority 2020, dated 2020).

Key:
[1] = test system: Mice with Alcoholic Liver Injury; assay: Protective effect on alcoholic liver injury in mice (serum ALT, AST, TG); assay type: in vivo; details: ethanol 3 g/kg/day, after 25 days
Method: The compound of formula (I) was prepared by the method of Example 7. In order to study its protective effect on alcoholic liver injury in mice, the following animal model was designed.
Three-week-old 30-35 g SPF male mice were randomly divided into normal control group, model group, low-dose group, high-dose group and tiopronin positive control group after adaptive feeding for 3 days. The normal control group and model group were fed with basic feed every day; low dose group and high dose group were fed with basic diet every day and were given the compound of formula (I) of 10 mg/kg/day and 50 mg/kg/day, respectively; tiopronin positive control group was fed with basic feed and 50 mg/kg/day tiopronin. Ethanol 3 g/kg/day (0.01 mL/g) was given to the model group, low dose group, high dose group and tiopronin positive control group. The normal control group was given distilled water of the same volume. After 25 days, fasting for 2 hours after the last administration, glutamic pyruvic transaminase (ALT), glutamic oxaloacetic transaminase (AST) and triglyceride (TG) were measured in serum by decapitation.

[2] = DPPH radical scavenging activity assay; assay type: biochemical; details: for DPPH Clearance rate: n = 3
From the text: 2,2-Diphenyl-1-picryl hydrazyl (DPPH) is an organic compound composed of a stable organic radical. In the DPPH molecule, due to the presence of multiple electron-withdrawing —NO2 and large π bonds of the benzene ring, nitrogen free radical is stabilized. Its methanol solution is purple and has a maximum absorption peak at 517 nm. After the addition of an antioxidant, DPPH captures an electron to be paired with the free electron, and the purple fades and turns into a yellow substance. The absorption at 517 nm disappears, and the degree of fading is quantitatively related to the number of electrons it captures. Based on this principle, a spectrophotometer is used to detect the change of the absorbance of the DPPH radical and the sample solution, and the ability of the sample to provide hydrogen atoms and scavenge free radicals can be measured.
Preparation of DPPH solution: measuring exact amount of 2,2-diphenyl-1-picryl hydrazyl (DPPH) and dissolving in toluene to prepare a 0.2 mmol/L DPPH solution, stored at 0° C. in dark.
Preparation of test solution: Vc (vitamin C, positive control), compound of formula (I) (sample), silibinin (control) and 3,3′-thiodipropionic acid (control). The sample solution was subjected to gradient dilution with toluene, and three sets of controls were separately dissolved in a test tube with a certain amount of toluene to prepare the same concentration gradient as the sample.
Sample liquid absorbance measurement: Take 2 mL of sample solution (Table 2 Vc, B, C), add 2 mL of DPPH solution with concentration of 2×10^−4 mol/L, mix and react in the dark at room temperature for 30 min, adjust to zero with toluene, and measure at 517 nm. The absorbance Ai was simultaneously measured for the absorbance Aj of 2 mL of toluene mixed with 2 mL of the sample solution and the absorbance Ao of 2 mL of DPPH solution mixed with 2 mL of toluene (the experimental results are shown in Table 3).
Clearance calculation: clearance rate (%)=[1−(Ai−Aj)/Ao]*100%

| SMILES | ALT ([1]; 50 mg/kg/day) [U/L] | AST ([1]; 50 mg/kg/day) [U/L] | TG ([1]; 50 mg/kg/day) [mmol/L] | ALT ([1]; 10 mg/kg/day) [U/L] | AST ([1]; 10 mg/kg/day) [U/L] | TG ([1]; 10 mg/kg/day) [mmol/L] | scavenging ability compared with the positive control Vc group [2] | DPPH Clearance rate ([2]; 1.76 ppm) [%] | DPPH Clearance rate ([2]; 8.80 ppm) [%] | DPPH Clearance rate ([2]; 21.12 ppm) [%] | DPPH Clearance rate ([2]; 42.24 ppm) [%] | DPPH Clearance rate ([2]; 79.20 ppm) [%] | DPPH Clearance rate ([2]; 112.64 ppm) [%] | DPPH Clearance rate ([2]; 281.60 ppm) [%] | DPPH Clearance rate ([2]; 492.80 ppm) [%] | DPPH Clearance rate ([2]; 792.00 ppm) [%] | DPPH Clearance rate ([2]; 915.20 ppm) [%] | scavenging ability to scavenge DPPH free radicals compared with silibinin (B) and 3,3′-thiodipropionic acid (C) alone ([2]; at the same concentration) | highest scavenging rate of DPPH radical ([2]; in the determined concentration range) [%] |
| --- | --- | --- | --- | --- | --- | --- | --- | --- | --- | --- | --- | --- | --- | --- | --- | --- | --- | --- | --- |
| CC(S)C(=O)NCC(=O)O (stereo not shown) [Tiopronin, tiopronin] | 63.45 ± 9.53 | 143.32 ± 15.46 | 1.336 ± 0.62 |  |  |  |  |  |  |  |  |  |  |  |  |  |  |  |  |
| COc1cc(C2Oc3cc([C@H]4Oc5cc(O)cc(O)c5C(=O)[C@@H]4O)ccc3OC2COC(=O)CCSCCC(=O)OCC2Oc3ccc([C@H]4Oc5cc(O)cc(O)c5C(=O)[C@@H]4O)cc3OC2c2ccc(O)c(OC)c2)ccc1O (stereo partly drawn) [Compound of Formula (I), bis((3-(4-hydroxy-3-methoxyphenyl)-6-((2R,3R)-3,5,7-trihydroxy-4-oxochroman-2-yl)-2,3-dihydrobenzo[b][1,4]dioxin-2-yl)methyl) 3,3′-thiodipropionate] | 56.17 ± 3.45 | 132.56 ± 7.21 | 0.877 ± 0.36 | 60.88 ± 9.75 | 138.53 ± 17.85 | 0.973 ± 0.25 | slightly weaker | 13.11 | 20.80 | 34.16 | 44.12 | 68.42 | 75.23 | 81.21 | 84.70 | 87.06 | 89.96 | better | 89.96 |
| COc1cc(C2Oc3cc([C@H]4Oc5cc(O)cc(O)c5C(=O)[C@@H]4O)ccc3OC2CO)ccc1O (stereo partly shown) [B, Silibinin] |  |  |  |  |  |  |  | 8.42 | 9.16 | 22.43 | 27.10 | 39.53 | 45.87 | 60.25 | 65.88 | 69.85 | 72.76 |  |  |
| O=C(O)CCSCCC(=O)O [C, 3,3′-Thiodipropionic acid] |  |  |  |  |  |  |  | 6.85 | 8.38 | 17.13 | 22.38 | 39.55 | 43.58 | 52.23 | 59.36 | 64.55 | 68.22 |  |  |
| O=C1O[C@H]([C@@H](O)CO)C(O)=C1O [Vc, vitamin C] |  |  |  |  |  |  |  | 23.16 | 33.47 | 79.63 | 89.55 | 97.42 | 97.53 | 98.29 | 99.06 | 99.10 | 99.28 |  |  |
